In article PMC9134315, “Systemic Administration of a Brain Permeable Cdk5 Inhibitor Alters Neurobehavior” (Frontiers in Pharmacology, 2022):
Like-named read-outs stand apart in the source and are kept apart here.

What was measured:
C57BL/6 mice = experiment: Tail suspension test; format: in vivo, mouse; conditions: 50 mg/kg, 6 h after injection
Method: The tail suspension test was conducted as previously described ([Plattner et al., 2015]). The mice were suspended by their tails for a total duration of 6 min and video-recorded. Post-hoc blind experimentalists quantified the duration and latency of immobility for each randomized video. The average quantitative determents of each observer were averaged to generate the final analytic values of motion.
Next, we tested the effects of 25–106 on mouse performance in the tail-suspension test to measure depressive-like phenotypes in mice ([Cryan et al., 2005]; [Can et al., 2012]). […] Thus, 25–106 modulated several neurobehavioral behaviors that have previously been linked to Cdk5.

[1] = Pharmacokinetic profile in mice after I.V. injection (LC-MS/MS of plasma, brain, liver, kidney); format: in vivo, mouse; conditions: for AUC(0-t): read-out: AUC24h; for concentration at 24 h: read-out: Clast; for k el: read-out: Ke (converted)
Method: The wild-type group housed male C57BL/6 mice 10–12 weeks of age were used for all in vivo, ex vivo, and behavioral studies. This age range was selected to be consistent with previous studies of conditional Cdk5 knockout mice ([Plattner et al., 2015]). 25–106 was administered in a 20-fold dose range intravenously (I.V.) at 10, 50, 100, and 200 mg/kg for pharmacokinetic studies. This delivery mode was used as I.V. injections to avoid first-pass drug metabolism observed using other injection methods ([Pond and Tozer, 1984]). […] All animal experiments were performed under approved protocols by the University of Alabama at Birmingham (UAB) Institutional Animal Care and Use Committees and in accordance with the guidelines of the Animal Welfare Act and the Guide for the Care and Use of Laboratory Animals.
A quantitative determination of 25–106 in mouse plasma and tissue homogenate was accomplished by the use of protein precipitation and high-performance liquid chromatography with tandem mass spectrometry detection (LC-MS/MS). 5-(N,N-hexamethylene) amiloride (HMA) was used as the internal standard (IS). 25–106 and IS were typically extracted from 50 µL of mouse plasma or tissue homogenate using protein precipitation with methanol. The extracts were analyzed by reverse-phase chromatography using an ACE Excel 3 C18-PFP column under isocratic conditions at a flow rate of 500 μL/min. The column temperature was maintained at 40°C. The mobile phase A consisted of 0.1% formic acid in water, and the mobile phase B was acetonitrile. A triple–quadrupole mass spectrometer (AB Sciex 5,000) equipped with TurboV IonSpray operating in positive-ion mode was used. Column effluents were analyzed by multiple reaction monitoring (MRM). The precursor/product transitions are 346.1 to 137.1 m/z for 25–106 and 312.37 to 129.5 m/z for IS. The calibration curve was fit using weighted (1/x^2) linear regression analysis of the 25–106/IS peak area ratio vs. the 25–106 concentration from 1.0–80.0 ng/ml (ng/g for tissue) for the low curve and 80.0–10,000 ng/ml (ng/g for tissue) for the high curve. The concentrations of incurred and quality control samples were calculated with the same regression analysis, and the results were reported in ng/mL (plasma) or ng/g (tissue) of 25–106.
To assess the pharmacokinetic and pharmacodynamic parameters of 25–106 in vivo, we utilized the LC-MS/MS detection method established above (see Figure 5). The mice were administered IV injections of 25–106 doses of 10, 50, 100, or 200 mg/kg. The animals were euthanized, and organs were harvested at 1, 2, 6, and 24 h post injection. Within the same experiment, tissues were used for biochemical analysis of 25–106 effects on Cdk5 activity (see Figures 3A, B).

[2] = male, C57BL/6, mouse, iv, brain, 10 mg/kg I.V.
[3] = male, C57BL/6, mouse, iv, brain, 50 mg/kg I.V.
[4] = male, C57BL/6, mouse, iv, brain, 100 mg/kg I.V.
[5] = male, C57BL/6, mouse, iv, brain, 200 mg/kg I.V.
[6] = male, C57BL/6, mouse, iv, kidney, 50 mg/kg I.V.
[7] = male, C57BL/6, mouse, iv, kidney, 100 mg/kg I.V.
[8] = male, C57BL/6, mouse, iv, kidney, 200 mg/kg I.V.
[9] = male, C57BL/6, mouse, iv, plasma, 10 mg/kg I.V.
[10] = male, C57BL/6, mouse, iv, plasma, 50 mg/kg I.V.
[11] = male, C57BL/6, mouse, iv, plasma, 100 mg/kg I.V.
[12] = male, C57BL/6, mouse, iv, plasma, 200 mg/kg I.V.

detectability in the brain and plasma ([1]; 24 h after injection, I.V.): remaining detectable
demethylated metabolites detected ([1]; LC-MS/MS, mice): No demethylated metabolite structures
V ([1]; brain, 10 mg/kg I.V.): 77.39 ± 25.63 L
V ([1]; brain, 50 mg/kg I.V.): 151.24 ± 58.36 L
CL ([1]; brain, 50 mg/kg I.V., 50 mg/kg): 16.57 ± 4.19 L/h
V ([1]; brain, 100 mg/kg I.V.): 126.99 ± 46.68 L
CL ([1]; brain, 100 mg/kg I.V., 100 mg/kg): 17.75 ± 6.77 L/h
V ([1]; brain, 200 mg/kg I.V.): 76.07 ± 73.66 L
Clast ([1]; kidney, 10 mg/kg I.V.): 163 ± 41.67 ng/mL
Clast ([1]; kidney, 50 mg/kg I.V.): 109.33 ± 42.90 ng/mL
V ([1]; kidney, 50 mg/kg I.V.): 78.88 ± 16.88 L
Clast ([1]; kidney, 100 mg/kg I.V.): 119.88 ± 51.83 ng/mL
V ([1]; kidney, 100 mg/kg I.V.): 172.86 ± 89.05 L
Clast ([1]; kidney, 200 mg/kg I.V.): 146.45 ± 87.11 ng/mL
V ([1]; kidney, 200 mg/kg I.V.): 163.98 ± 55.79 L
Clast ([1]; liver, 10 mg/kg I.V.): 85.18 ± 32.60 ng/mL
Clast ([1]; liver, 50 mg/kg I.V.): 252.73 ± 200.06 ng/mL
Clast ([1]; liver, 100 mg/kg I.V.): 150.9 ± 103.92 ng/mL
Clast ([1]; liver, 200 mg/kg I.V.): 310.9 ± 247.48 ng/mL
clearance ([1]; male, C57BL/6, mouse, brain, iv, 10 mg/kg, 10 mg/kg I.V.): 66.3 mL/min
Cmax ([1]; male, C57BL/6, mouse, brain, iv, 10 mg/kg, brain, 10 mg/kg I.V., read-out: Cmax): 101 ± 23.6 ng/g
clearance ([1]; male, C57BL/6, mouse, brain, iv, 50 mg/kg, 50 mg/kg I.V.): 275 mL/min
Cmax ([1]; male, C57BL/6, mouse, brain, iv, 50 mg/kg, brain, 50 mg/kg I.V., read-out: Cmax): 118 ± 76.7 ng/g
clearance ([1]; male, C57BL/6, mouse, brain, iv, 100 mg/kg, 100 mg/kg I.V.): 295 mL/min
Cmax ([1]; male, C57BL/6, mouse, brain, iv, 100 mg/kg, brain, 100 mg/kg I.V., read-out: Cmax): 377 ± 289 ng/g
clearance ([1]; male, C57BL/6, mouse, brain, iv, 200 mg/kg, 200 mg/kg I.V.): 188 mL/min
Cmax ([1]; male, C57BL/6, mouse, brain, iv, 200 mg/kg, brain, 200 mg/kg I.V., read-out: Cmax): 669 ± 316 ng/g
half-life [1, 2]: 17.2 ± 10.4 h
AUC(0-t) [1, 2]: 80 ± 20 ng·h/mL
concentration at 24 h [1, 2]: 2.27 ± 1.44 ng/mL
k el [1, 2]: 1.67e-05 s⁻¹
half-life [1, 3]: 6.23 ± 1.12 h
AUC(0-t) [1, 3]: 90 ± 30 ng·h/mL
concentration at 24 h [1, 3]: 2.73 ± 1.75 ng/mL
k el [1, 3]: 3.06e-05 s⁻¹
half-life [1, 4]: 5.03 ± 0.69 h
AUC(0-t) [1, 4]: 180 ± 70 ng·h/mL
concentration at 24 h [1, 4]: 2.88 ± 1.16 ng/mL
k el [1, 4]: 3.89e-05 s⁻¹
half-life [1, 5]: 4.39 ± 1.19 h
AUC(0-t) [1, 5]: 960 ± 860 ng·h/mL
concentration at 24 h [1, 5]: 14 ± 14.5 ng/mL
k el [1, 5]: 4.72e-05 s⁻¹
AUC(0-t) ([1]; male, C57BL/6, mouse, iv, kidney, 10 mg/kg I.V.): 6300 ± 1690 ng·h/mL
half-life [1, 6]: 10.2 ± 2.99 h
AUC(0-t) [1, 6]: 7640 ± 1280 ng·h/mL
k el [1, 6]: 1.94e-05 s⁻¹
half-life [1, 7]: 13 ± 4.56 h
AUC(0-t) [1, 7]: 9420 ± 3060 ng·h/mL
k el [1, 7]: 1.67e-05 s⁻¹
half-life [1, 8]: 9.65 ± 5.34 h
AUC(0-t) [1, 8]: 14400 ± 4630 ng·h/mL
k el [1, 8]: 2.5e-05 s⁻¹
AUC(0-t) ([1]; male, C57BL/6, mouse, iv, liver, 10 mg/kg I.V.): 3080 ± 1010 ng·h/mL
AUC(0-t) ([1]; male, C57BL/6, mouse, iv, liver, 50 mg/kg I.V.): 2760 ± 980 ng·h/mL
AUC(0-t) ([1]; male, C57BL/6, mouse, iv, liver, 100 mg/kg I.V.): 3320 ± 1280 ng·h/mL
AUC(0-t) ([1]; male, C57BL/6, mouse, iv, liver, 200 mg/kg I.V.): 5440 ± 1950 ng·h/mL
half-life [1, 9]: 6.5 ± 2.36 h
AUC(0-t) [1, 9]: 5710 ± 2260 ng·h/mL
concentration at 24 h [1, 9]: 16.3 ± 7 ng/mL
k el [1, 9]: 3.06e-05 s⁻¹
half-life [1, 10]: 7.48 ± 0.41 h
AUC(0-t) [1, 10]: 6930 ± 930 ng·h/mL
concentration at 24 h [1, 10]: 69.7 ± 16.2 ng/mL
k el [1, 10]: 2.5e-05 s⁻¹
half-life [1, 11]: 8.37 ± 1.77 h
AUC(0-t) [1, 11]: 8380 ± 780 ng·h/mL
concentration at 24 h [1, 11]: 79.2 ± 16 ng/mL
k el [1, 11]: 2.5e-05 s⁻¹
half-life [1, 12]: 11 ± 6.38 h
AUC(0-t) [1, 12]: 12000 ± 1740 ng·h/mL
concentration at 24 h [1, 12]: 149 ± 94.1 ng/mL
k el [1, 12]: 2.22e-05 s⁻¹
Cmax ([1]; male, C57BL/6, mouse, kidney, iv, 10 mg/kg, kidney, 10 mg/kg I.V., read-out: Cmax): 2950 ng/g
clearance ([1]; male, C57BL/6, mouse, kidney, iv, 50 mg/kg, 50 mg/kg I.V.): 92.5 mL/min
Cmax ([1]; male, C57BL/6, mouse, kidney, iv, 50 mg/kg, kidney, 50 mg/kg I.V., read-out: Cmax): 1190 ng/g
clearance ([1]; male, C57BL/6, mouse, kidney, iv, 100 mg/kg, 100 mg/kg I.V.): 154 mL/min
Cmax ([1]; male, C57BL/6, mouse, kidney, iv, 100 mg/kg, kidney, 100 mg/kg I.V., read-out: Cmax): 2580 ng/g
clearance ([1]; male, C57BL/6, mouse, kidney, iv, 200 mg/kg, 200 mg/kg I.V.): 227 mL/min
Cmax ([1]; male, C57BL/6, mouse, kidney, iv, 200 mg/kg, kidney, 200 mg/kg I.V., read-out: Cmax): 4660 ng/g
Cmax ([1]; male, C57BL/6, mouse, liver, iv, 10 mg/kg, liver, 10 mg/kg I.V., read-out: Cmax): 1760 ± 526 ng/g
Cmax ([1]; male, C57BL/6, mouse, liver, iv, 50 mg/kg, liver, 50 mg/kg I.V., read-out: Cmax): 513 ± 22 ng/g
Cmax ([1]; male, C57BL/6, mouse, liver, iv, 100 mg/kg, liver, 100 mg/kg I.V., read-out: Cmax): 868 ± 378 ng/g
Cmax ([1]; male, C57BL/6, mouse, liver, iv, 200 mg/kg, liver, 200 mg/kg I.V., read-out: Cmax): 2810 ng/g
clearance ([1]; male, C57BL/6, mouse, plasma, iv, 10 mg/kg, 10 mg/kg I.V.): 1 mL/min
Cmax ([1]; male, C57BL/6, mouse, plasma, iv, 10 mg/kg, plasma, 10 mg/kg I.V., read-out: Cmax): 2570 ng/mL
clearance ([1]; male, C57BL/6, mouse, plasma, iv, 50 mg/kg, 50 mg/kg I.V.): 3.33 mL/min
Cmax ([1]; male, C57BL/6, mouse, plasma, iv, 50 mg/kg, plasma, 50 mg/kg I.V., read-out: Cmax): 1380 ng/mL
clearance ([1]; male, C57BL/6, mouse, plasma, iv, 100 mg/kg, 100 mg/kg I.V.): 5.33 mL/min
Cmax ([1]; male, C57BL/6, mouse, plasma, iv, 100 mg/kg, plasma, 100 mg/kg I.V., read-out: Cmax): 2580 ng/mL
clearance ([1]; male, C57BL/6, mouse, plasma, iv, 200 mg/kg, 200 mg/kg I.V.): 7.17 mL/min
Cmax ([1]; male, C57BL/6, mouse, plasma, iv, 200 mg/kg, plasma, 200 mg/kg I.V., read-out: Cmax): 2320 ng/mL
V ([1]; plasma, 10 mg/kg I.V.): 0.49 ± 0.08 L
V ([1]; plasma, 50 mg/kg I.V.): 2.14 ± 0.34 L
V ([1]; plasma, 100 mg/kg I.V.): 3.85 ± 0.55 L
Cmax ([1]; plasma, 100 mg/kg I.V., 100 mg/kg): 2,577.50 ± 1,004.73 Ng/ml
V ([1]; plasma, 200 mg/kg I.V.): 6.12 ± 2.08 L
Cmax ([1]; plasma, 200 mg/kg I.V., 200 mg/kg): 2,322.50 ± 972.71 Ng/ml
Compound: COc1cc(CC(=O)Nc2cc(C3CCC3)[nH]n2)cc(OC)c1OC [25–106, N-(5-cyclobutyl-1H-pyrazol-3-yl)-2-(3,4,5-trimethoxyphenyl)acetamide]
latency to immobility vs. vehicle (C57BL/6 mice): increased latency
total immobility time vs. vehicle (C57BL/6 mice): reduction in total immobility time
